From ChEMBL document CHEMBL4342467, “Discovery of a Novel Dual-Target Inhibitor of ERK1 and ERK5 That Induces Regulated Cell Death to Overcome Compensatory Mechanism in Specific Tumor Types” (J Med Chem, 2020)
pIC50: −log10 of the molar value.

Legend:
HeLa = experiment: Antiproliferative activity against human HeLa cells assessed as reduction in cell viability measured after 24 hrs; type: functional, cell-based
MKN-74 = experiment: Antiproliferative activity against human MKN74 cells assessed as reduction in cell viability measured after 24 hrs; type: functional, cell-based; details: MKN-74, 24 h
[1] = target: Mitogen-activated protein kinase 1 (Homo sapiens) (UniProt P28482); experiment: Inhibition of ERK2 (unknown origin) at 1 uM by Z'-Lyte assay relative to control
[2] = target: Mitogen-activated protein kinase 3 (Homo sapiens) (UniProt P27361); experiment: Inhibition of ERK1 (unknown origin) at 1 uM by Z'-Lyte assay relative to control
[3] = target: Mitogen-activated protein kinase 7 (Homo sapiens) (UniProt Q13164); experiment: Inhibition of ERK5 (unknown origin) at 1 uM by Z'-Lyte assay relative to control
HL-60 = experiment: Antiproliferative activity against human HL60 cells assessed as reduction in cell viability measured after 24 hrs; type: functional, cell-based; details: HL-60, 24 h

Chain of Mitogen-activated protein kinase 3 (Homo sapiens) (P27361 whole entry): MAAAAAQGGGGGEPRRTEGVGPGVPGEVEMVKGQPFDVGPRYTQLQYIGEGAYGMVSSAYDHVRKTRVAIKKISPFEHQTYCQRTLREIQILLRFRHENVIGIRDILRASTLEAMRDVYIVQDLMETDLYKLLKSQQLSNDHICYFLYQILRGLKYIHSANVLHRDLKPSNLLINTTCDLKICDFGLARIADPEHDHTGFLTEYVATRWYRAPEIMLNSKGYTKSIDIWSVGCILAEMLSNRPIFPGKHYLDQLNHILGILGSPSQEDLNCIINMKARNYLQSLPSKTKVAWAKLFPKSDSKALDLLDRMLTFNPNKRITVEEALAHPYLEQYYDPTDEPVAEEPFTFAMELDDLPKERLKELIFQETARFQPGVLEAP
Chain of Mitogen-activated protein kinase 1 (Homo sapiens) (P28482 whole entry): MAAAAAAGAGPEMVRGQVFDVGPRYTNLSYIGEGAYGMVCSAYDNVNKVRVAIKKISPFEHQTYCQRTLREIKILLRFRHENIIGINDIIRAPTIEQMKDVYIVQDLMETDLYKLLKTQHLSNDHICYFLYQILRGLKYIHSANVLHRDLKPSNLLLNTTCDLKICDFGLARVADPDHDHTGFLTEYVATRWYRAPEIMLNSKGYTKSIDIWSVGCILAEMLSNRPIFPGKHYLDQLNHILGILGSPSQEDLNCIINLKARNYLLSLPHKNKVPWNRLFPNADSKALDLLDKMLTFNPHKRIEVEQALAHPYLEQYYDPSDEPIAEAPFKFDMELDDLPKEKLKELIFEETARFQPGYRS
Chain of Mitogen-activated protein kinase 7 (Homo sapiens) (Q13164 2-816 limits assumed): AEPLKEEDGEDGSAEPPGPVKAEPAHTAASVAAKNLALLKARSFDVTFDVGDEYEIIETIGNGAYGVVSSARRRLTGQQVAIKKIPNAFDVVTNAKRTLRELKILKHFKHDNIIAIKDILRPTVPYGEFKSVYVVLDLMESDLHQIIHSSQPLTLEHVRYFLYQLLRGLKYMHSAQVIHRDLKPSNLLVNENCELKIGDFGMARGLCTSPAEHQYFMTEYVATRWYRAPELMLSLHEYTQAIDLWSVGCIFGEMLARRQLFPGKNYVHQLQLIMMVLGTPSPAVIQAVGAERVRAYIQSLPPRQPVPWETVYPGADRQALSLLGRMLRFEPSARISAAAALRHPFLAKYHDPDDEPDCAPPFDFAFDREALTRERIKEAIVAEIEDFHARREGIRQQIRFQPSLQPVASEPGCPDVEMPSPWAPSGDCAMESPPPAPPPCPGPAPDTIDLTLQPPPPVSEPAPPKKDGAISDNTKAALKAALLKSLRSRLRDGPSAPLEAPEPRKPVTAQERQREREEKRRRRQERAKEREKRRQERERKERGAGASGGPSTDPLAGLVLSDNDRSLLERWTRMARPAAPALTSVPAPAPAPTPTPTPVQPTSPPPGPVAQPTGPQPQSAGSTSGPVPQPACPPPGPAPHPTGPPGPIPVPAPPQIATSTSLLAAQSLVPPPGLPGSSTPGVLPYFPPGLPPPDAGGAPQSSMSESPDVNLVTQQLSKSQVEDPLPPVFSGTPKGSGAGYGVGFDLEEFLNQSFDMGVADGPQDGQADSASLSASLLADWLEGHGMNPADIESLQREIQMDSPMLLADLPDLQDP

Row | pIC50 (HeLa) | pIC50 (MKN-74) | inhibition [1] [%] | inhibition [2] [%] | inhibition [3] [%] | pIC50 (HL-60) | Compound
1 | 4.39 | 5.05 | 58.5 | 64.2 | 70.7 | 5.15 | NC(=O)c1c(NC(=O)c2cccc([N+](=O)[O-])c2)sc2c1CCN(C(=S)Nc1ccccc1Cl)C2
2 | 4.45 | 4.96 | 65.9 | 70.6 | 53 | 4.68 | Cc1ccccc1C(=O)Nc1sc2c(c1C(N)=O)CCN(C(=S)Nc1ccccc1Cl)C2
3 | < 4.30 | 4.59 | 53.7 | 32.2 | 52.3 | 4.70 | Cc1ccc(C(=O)Nc2sc3c(c2C(N)=O)CCN(Cc2ccc(Cl)cc2Cl)C3)cc1
4 | 4.55 | 4.88 | 68.6 | 76.6 | 77.3 | 4.75 | NC(=O)c1c(NC(=O)c2ccccc2F)sc2c1CCN(C(=S)Nc1cc(C(F)(F)F)cc(C(F)(F)F)c1)C2
5 | < 4.30 | 4.71 | 81.6 | 77.2 | 86.5 | 4.63 | NC(=O)c1c(NC(=O)c2ccccc2C(F)(F)F)sc2c1CCN(C(=S)Nc1ccccc1F)C2
6 | 4.35 | 4.54 | 64.9 | 61.5 | 62.7 | 4.73 | NC(=O)c1c(NC(=O)c2ccccc2Cl)sc2c1CCNC2
7 | 4.48 | 4.56 | 71.9 | 70.4 | 53.8 | 4.84 | Cc1ccc(C(=O)Nc2sc3c(c2C(N)=O)CCN(C(=O)Nc2ccccc2Cl)C3)cc1
8 | < 4.30 | 4.45 | 70.6 | 71.3 | 53.7 | 4.39 | COc1ccccc1NC(=S)N1CCc2c(sc(NC(=O)c3ccccc3Cl)c2C(N)=O)C1
9 | 4.33 | 4.81 | 76.5 | 85.4 | 59.5 | 5.23 | NC(=O)c1c(NC(=O)c2ccccc2Cl)sc2c1CCN(C(=S)Nc1ccccc1)C2
10 | 4.71 | 4.96 | 68.6 | 62.4 | 65.2 | 4.90 | NC(=O)c1c(NC(=O)c2ccccc2F)sc2c1CCN(C(=S)Nc1ccccc1Cl)C2
11 | 4.51 | 4.69 | 81.3 | 82.8 | 72.5 | 4.87 | NC(=O)c1c(NC(=O)c2ccccc2Cl)sc2c1CCN(C(=S)Nc1cccc3ccccc13)C2
12 | 4.33 | 4.32 | 62.8 | 64.9 | 48.3 | 4.60 | Cc1ccccc1NC(=S)N1CCc2c(sc(NC(=O)c3ccccc3C(F)(F)F)c2C(N)=O)C1
13 | 4.57 | 4.61 | 85 | 82.7 | 82.7 | 4.75 | NC(=O)c1c(NC(=O)c2ccccc2Cl)sc2c1CCN(C(=O)Nc1c(Cl)cccc1Cl)C2
14 | 4.34 | 4.79 | 88.4 | 89.2 | 89.9 | 4.90 | NC(=O)c1c(NC(=O)c2ccccc2Cl)sc2c1CCN(C(=O)Nc1ccccc1Cl)C2
15 | < 4.30 | 4.93 | 77.5 | 73.8 | 58.9 | 4.86 | NC(=O)c1c(NC(=O)c2ccccc2)sc2c1CCN(C(=S)Nc1ccccc1Cl)C2
16 | < 4.30 | 4.73 | 55.4 | 47.4 | 47 | 4.65 | NC(=O)c1c(NC(=O)c2ccccc2Cl)sc2c1CCN(Cc1ccc(Cl)cc1)C2
17 | < 4.30 | < 4.30 | 68.7 | 70.1 | 65.7 | < 4.30 | NC(=O)c1c(NC(=O)c2ccccc2Br)sc2c1CCN(C(=S)Nc1ccccc1F)C2
18 | < 4.30 | 4.96 | 33.2 | 39.6 | 40 | 4.83 | NC(=O)c1c(NC(=O)c2ccc(C(F)(F)F)cc2)sc2c1CCN(Cc1ccc(Cl)cc1Cl)C2
19 | 4.58 | 4.95 | 82.8 | 83.2 | 50.4 | 5.07 | Cc1ccc(C(=O)Nc2sc3c(c2C(N)=O)CCN(C(=S)Nc2ccccc2Cl)C3)cc1
20 | < 4.30 | 4.46 | 74.9 | 77.6 | 61.7 | < 4.30 | COc1ccccc1NC(=S)N1CCc2c(sc(NC(=O)c3ccccc3C(F)(F)F)c2C(N)=O)C1

Row | pIC50 (HeLa) | pIC50 (MKN-74) | inhibition [1] [%] | inhibition [2] [%] | inhibition [3] [%] | pIC50 (HL-60) | Compound
21 | 4.58 | 5.40 | 90.5 | 90.7 | 88 | 5.40 | NC(=O)c1c(NC(=O)c2ccccc2Cl)sc2c1CCN(C(=S)Nc1c(Cl)cccc1Cl)C2
22 | < 4.30 | 4.55 | 45.7 | 48.5 | 38.5 | 4.46 | NC(=O)c1c(NC(=O)c2ccncn2)sc2c1CCN(C(=S)Nc1ccccc1Cl)C2
23 | 4.48 | 5.13 | 36.9 | 48.4 | 21.1 | 4.99 | NC(=O)c1c(NC(=O)c2ccccc2F)sc2c1CCN(Cc1c(Cl)cccc1Cl)C2
24 | < 4.30 | < 4.30 | 65.2 | 64.7 | 54.9 | 4.34 | Cc1ccccc1C(=O)Nc1sc2c(c1C(N)=O)CCN(C(=S)Nc1ccccc1Br)C2
25 | < 4.30 | 4.89 | 71.6 | 68.3 | 37.9 | 4.66 | NC(=O)c1c(NC(=O)c2ccccc2Cl)sc2c1CCN(Cc1ccccc1F)C2
26 | < 4.30 | 4.62 | 85.5 | 82.5 | 73.3 | 4.59 | NC(=O)c1c(NC(=O)c2ccccc2C(F)(F)F)sc2c1CCN(C(=S)Nc1ccccc1Br)C2
27 | < 4.30 | 4.65 | 80 | 82 | 85.5 | 4.72 | NC(=O)c1c(NC(=O)c2ccccc2I)sc2c1CCN(C(=S)Nc1ccccc1Br)C2
28 | < 4.30 | < 4.30 | 66.3 | 65.8 | 61.4 | < 4.30 | NC(=O)c1c(NC(=O)c2ccccc2)sc2c1CCN(C(=S)Nc1ccccc1)C2
29 | 4.56 | 5.02 | 32.4 | 55.7 | 38 | 4.88 | NC(=O)c1c(NC(=O)c2ccccc2F)sc2c1CCN(Cc1ccc(Cl)cc1Cl)C2
30 | < 4.30 | < 4.30 | 60.8 | 65.1 | 46.7 | < 4.30 | Cc1ccccc1NC(=S)N1CCc2c(sc(NC(=O)c3ccccc3Br)c2C(N)=O)C1
31 | < 4.30 | < 4.30 | 53.4 | 60.6 | 55.3 | < 4.30 | Cc1ccccc1CN1CCc2c(sc(NC(=O)c3ccccc3Cl)c2C(N)=O)C1
32 | < 4.30 | 4.30 | 62.4 | 65 | 54.9 | 4.48 | NC(=O)c1c(NC(=O)c2ccccc2F)sc2c1CCN(C(=O)Nc1ccccc1Cl)C2
33 | < 4.30 | < 4.30 | 48.7 | 44.7 | 32 | < 4.30 | COc1ccccc1NC(=S)N1CCc2c(sc(NC(=O)c3ccccc3OC)c2C(N)=O)C1
34 | < 4.30 | 5.02 | 42.1 | 55.8 | 44.3 | 4.98 | N#Cc1ccccc1CN1CCc2c(sc(NC(=O)c3ccccc3Cl)c2C(N)=O)C1
35 | 4.57 | 4.59 | 75 | 80.2 | 82.9 | 4.79 | NC(=O)c1c(NC(=O)c2cccc([N+](=O)[O-])c2)sc2c1CCN(C(=S)Nc1cc(C(F)(F)F)cc(C(F)(F)F)c1)C2
36 | 4.34 | 4.87 | 29.3 | 31.6 | 45.2 | 4.74 | NC(=O)c1c(NC(=O)c2cccc([N+](=O)[O-])c2)sc2c1CCN(Cc1c(Cl)cccc1Cl)C2
37 | 4.60 | 4.59 | 64.7 | 60.9 | 40.5 | 4.46 | NC(=O)c1c(NC(=O)c2ccccc2Cl)sc2c1CCN(C(=S)Nc1ccccc1-c1ccccc1)C2
38 | 4.32 | 4.91 | 45.4 | 42.8 | 46 | 5.00 | Cc1ccc(C(=O)Nc2sc3c(c2C(N)=O)CCN(Cc2c(Cl)cccc2Cl)C3)cc1
39 | 4.31 | 4.63 | 48.8 | 49.3 | 42.5 | 4.70 | NC(=O)c1c(NC(=O)c2ccccc2F)sc2c1CCN(Cc1cccc(Cl)c1)C2
